Results: paper PMC9033141, “Beta and Gamma Amino Acid-Substituted Benzenesulfonamides as Inhibitors of Human Carbonic Anhydrases” (Pharmaceuticals, 2022)
Read-outs that look alike come from different tables or passages of the source.

What was measured:
CAVA = target: T1, CAVA (Homo sapiens, UniProt P35218); assay: Fluorescent thermal shift assay (FTSA), CAVA; assay type: binding; conditions: for Kd: FTSA
T1 construct: made in house; host or cells: E. coli
Procedure: (§1) Human CA isozymes were expressed in E. coli (CAI, II, III, IV, VA, VB, VII, XII, XIII, XIV) or mammalian cells (CAVI and CAIX), chromatographically purified following the published protocols [47], and stored at −80 °C. The protein concentration was determined by UV absorption at 280 nm using Beer–Lambert law.
(§2) The QIAGEN Rotor-Gene Q was used to carry out the experiments, with a blue channel used for excitation (365 nm) and detection (460 nm). FTSA in this case relies on an extrinsic probe, 8-anilino-1-naphthalenesulfonate (ANS), to detect the fluorescence increase during protein denaturation, from which protein melting temperature (Tm) can be determined. […] The observed affinity of ligands for CAs was determined by plotting the Tm as a function of ligand concentration and then fitting a curve as described previously [48]. […] Samples were heated from 25 °C to 99 °C at the speed of 1 °C/min.
(§3) The intrinsic thermodynamic parameters were calculated as described in [40]. The intrinsic reaction of inhibitor binding to CA is shown in Equation (1). […] It is known that CA proteins bind sulfonamides only when water molecules are coordinated to the Zn(II) ion, and sulfonamides only bind to CA proteins when their amino group is deprotonated (confirmed by neutron crystallography [53, 54, 55]):(1) CA Zn^II−H2O+RSO2NH^−⇄ CA Zn^II−NH SO2R+H2O
(§4) When calculating Kd_int values, these protein and ligand fractions from Equation (1) have to be accounted for (Equations (2) and (3)). The intrinsic dissociation constant is calculated by multiplying Kd_obs value by the corresponding fractions of protein and ligand (Equation (4)). (2) fRSO2NH^−=10^pH−pKa_RSO2NH2/1+10^pH−pKa_RSO2NH2 (3) fCAZnH2O=1−10^pH−pKa_CAZnH2O/1+10^pH−pKa_CAZnH2O (4) Kd_int=Kd_obs×fRSO2NH^−×fCAZnH2O (5) ΔGint0=RTlnKd_int
(§5) The intrinsic standard Gibbs energy changes upon binding were calculated using Equation (5). Here, R—universal ideal gas constant (8.3144 J/mol·K), T—absolute temperature (310.15 K).

CAII [1] = target: T2, CAII (Homo sapiens, UniProt P00918); assay: biochemical; assay type: binding; conditions: for Intrinsic Gibbs energy change (ΔGint), CAII: 37 °C, calculated (Equation 5); for Kd: FTSA, pH 7.0, 37 °C, read-out: Observed Dissociation Constant (Kd_obs), CAII
T2 construct: made in house; host or cells: E. coli
Procedure: as §1, §2
(§6) The intrinsic thermodynamic parameters were calculated as described in [40]. The intrinsic reaction of inhibitor binding to CA is shown in Equation (1).
as §4, §5

CAXII [2] = target: T3, CAXII (Homo sapiens, UniProt O43570); assay: biochemical; assay type: binding; conditions: for Intrinsic Gibbs energy change (ΔGint), CAXII: 37 °C, calculated (Equation 5); for Kd: FTSA, pH 7.0, 37 °C, read-out: Observed Dissociation Constant (Kd_obs), CAXII
T3 construct: made in house; host or cells: E. coli
T3 sequence (O43570 25-354): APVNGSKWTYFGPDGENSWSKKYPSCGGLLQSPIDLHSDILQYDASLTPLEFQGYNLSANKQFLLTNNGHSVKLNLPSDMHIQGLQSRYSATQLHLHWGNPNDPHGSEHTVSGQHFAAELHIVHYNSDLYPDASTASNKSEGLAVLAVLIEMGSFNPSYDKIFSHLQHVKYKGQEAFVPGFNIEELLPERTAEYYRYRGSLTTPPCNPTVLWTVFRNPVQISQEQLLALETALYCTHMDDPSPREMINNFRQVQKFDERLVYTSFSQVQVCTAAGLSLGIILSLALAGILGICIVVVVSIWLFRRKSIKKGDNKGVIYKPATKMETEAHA
Procedure: as §1, §2, §6, §4, §5

CAVI = target: T4, CAVI (Homo sapiens, UniProt P23280); assay: Fluorescent thermal shift assay (FTSA), CAVI; assay type: binding; conditions: for Intrinsic Gibbs energy change (ΔGint), CAVI: 37 °C, calculated (Equation 5); for Kd: FTSA, pH 7.0, 37 °C, read-out: Observed Dissociation Constant (Kd_obs), CAVI;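 on all read-outs here: human CAVI expressed in mammalian cells, ANS fluorescence tracked during thermal unfolding, melting temperature fitted against ligand concentration, intrinsic values corrected for deprotonated sulfonamide and Zn-bound water fractions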
T4 construct: made in house
T4 sequence (P23280 21-290 limits assumed): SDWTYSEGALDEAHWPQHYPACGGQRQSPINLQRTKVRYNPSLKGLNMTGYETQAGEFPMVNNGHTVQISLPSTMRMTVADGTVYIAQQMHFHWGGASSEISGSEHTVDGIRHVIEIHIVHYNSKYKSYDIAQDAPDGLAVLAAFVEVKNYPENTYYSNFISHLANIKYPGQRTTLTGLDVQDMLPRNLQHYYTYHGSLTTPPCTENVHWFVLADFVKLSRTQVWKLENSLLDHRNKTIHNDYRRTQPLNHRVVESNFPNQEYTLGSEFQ
Procedure: as §1, §2, §3, §4, §5

CAVII = target: T5, CAVII (Homo sapiens, UniProt P43166); assay: Fluorescent thermal shift assay (FTSA), CAVII; assay type: binding; conditions: for Intrinsic Gibbs energy change (ΔGint), CAVII: 37 °C, calculated (Equation 5); for Kd: FTSA, pH 7.0, 37 °C, read-out: Observed Dissociation Constant (Kd_obs), CAVII
T5 construct: made in house; host or cells: E. coli
T5 sequence (P43166 whole entry): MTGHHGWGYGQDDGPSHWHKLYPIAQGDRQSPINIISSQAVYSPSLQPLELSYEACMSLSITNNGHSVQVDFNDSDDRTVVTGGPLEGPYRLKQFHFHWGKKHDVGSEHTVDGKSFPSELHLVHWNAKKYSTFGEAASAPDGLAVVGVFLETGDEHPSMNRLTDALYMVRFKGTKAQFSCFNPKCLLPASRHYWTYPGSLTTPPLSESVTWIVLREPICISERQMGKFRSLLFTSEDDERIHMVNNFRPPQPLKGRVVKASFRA
Procedure: as §1, §2, §3, §4, §5

CAIII = target: T6, CAIII (Homo sapiens, UniProt P07451); assay: Fluorescent thermal shift assay (FTSA), CAIII; assay type: binding; conditions: FTSA, pH 7.0, 37 °C; read-out: Observed Dissociation Constant (Kd_obs), CAIII
T6 construct: made in house; host or cells: E. coli
T6 sequence (P07451 whole entry): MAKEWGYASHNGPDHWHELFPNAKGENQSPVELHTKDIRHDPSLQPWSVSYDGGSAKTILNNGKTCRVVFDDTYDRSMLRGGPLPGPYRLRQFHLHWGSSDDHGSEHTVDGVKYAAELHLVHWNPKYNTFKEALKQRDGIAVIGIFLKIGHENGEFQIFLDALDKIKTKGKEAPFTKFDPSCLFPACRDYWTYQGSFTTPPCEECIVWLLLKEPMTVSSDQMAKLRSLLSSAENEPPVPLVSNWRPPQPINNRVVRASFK
Procedure: as §1, §2, §3, §4, §5

CAI [3] = target: T7, CAI (Homo sapiens, UniProt P00915); assay: biochemical; assay type: binding; conditions: for Intrinsic Gibbs energy change (ΔGint), CAI: 37 °C, calculated (Equation 5); for Kd: FTSA, pH 7.0, 37 °C, read-out: Observed Dissociation Constant (Kd_obs), CAI
T7 construct: made in house; host or cells: E. coli
T7 sequence (P00915 whole entry): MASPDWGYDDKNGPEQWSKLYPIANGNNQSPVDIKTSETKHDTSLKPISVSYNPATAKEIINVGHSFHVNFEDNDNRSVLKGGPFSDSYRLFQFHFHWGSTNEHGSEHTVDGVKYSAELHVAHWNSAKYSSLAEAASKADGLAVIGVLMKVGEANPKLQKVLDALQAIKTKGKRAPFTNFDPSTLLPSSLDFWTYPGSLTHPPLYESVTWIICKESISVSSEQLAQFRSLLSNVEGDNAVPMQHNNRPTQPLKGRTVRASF
Procedure: as §1, §2, §6, §4, §5

CAXIII [4] = target: T8, CAXIII (Homo sapiens, UniProt Q8N1Q1); conditions: 37 °C; calculated (Equation 5);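 on Intrinsic Gibbs energy change (ΔGint), CAXIII: recombinant human CAXIII melting temperature tracked by ANS fluorescence in thermal shift assay, Tm fitted against ligand concentration, intrinsic value corrects Kd for deprotonated sulfonamide and Zn-bound water fractions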
T8 sequence (Q8N1Q1 whole entry): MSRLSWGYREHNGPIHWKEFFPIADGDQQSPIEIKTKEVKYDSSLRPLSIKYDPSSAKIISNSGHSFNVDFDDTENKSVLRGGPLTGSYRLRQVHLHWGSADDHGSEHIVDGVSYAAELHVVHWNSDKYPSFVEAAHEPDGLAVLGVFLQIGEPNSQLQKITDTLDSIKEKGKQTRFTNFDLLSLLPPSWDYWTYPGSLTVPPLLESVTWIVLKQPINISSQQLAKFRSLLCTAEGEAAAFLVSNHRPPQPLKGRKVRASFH

CAIX [5] = target: T9, CAIX (Homo sapiens, UniProt Q16790); assay: biochemical; assay type: binding; conditions: for Intrinsic Gibbs energy change (ΔGint), CAIX: 37 °C, calculated (Equation 5); for Kd: FTSA, pH 7.0, 37 °C, read-out: Observed Dissociation Constant (Kd_obs), CAIX
T9 construct: made in house
Procedure: as §1, §2, §6, §4, §5

[6] = Determination of compound sulfonamide group pKa (UV-Vis spectra at different pH); assay type: physicochemical; conditions: universal buffer; spectrophotometric, 37 °C; read-out: Sulfonamide pKa
Procedure: To calculate the intrinsic thermodynamic parameters of compound binding to CA isozymes, the pKa values of the sulfonamide group and the water molecule bound to the Zn(II) ion at the active site of CA proteins had to be determined. The pKa values for CA isozyme-bound water molecules were taken from, CAI—8.1; CAII—6.9; CAIII—6.5; CAIV—6.6; CAVA—6.7; CAVB—7.0; CAVI—6.0; CAVII—6.8; CAIX—6.6; CAXII—6.8; CAXIII—8.0; CAXIV—6.1. […] The pKa values were calculated as described previously in [28, 52] by normalizing the absorbance, plotting it as a function of pH, then fitting to the Henderson–Hasselbalch equation using the least square method (Figure S105).
Since the pKa values were only able to be measured for compound group 26–36, due to universal buffer pH limitations, intrinsic thermodynamic parameters were not calculated for compounds 2(a,b)–25(a,b), only for compounds 26–36 using experimentally obtained pKa values when possible and using the average pKa value mentioned above for compounds not measured.

CAXIV = target: T10, CAXIV (Homo sapiens, UniProt Q9ULX7); assay: Fluorescent thermal shift assay (FTSA), CAXIV; assay type: binding; conditions: for Intrinsic Gibbs energy change (ΔGint), CAXIV: 37 °C, calculated (Equation 5); for Kd: FTSA, pH 7.0, 37 °C, read-out: Observed Dissociation Constant (Kd_obs), CAXIV;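 on all read-outs here: recombinant human CA XIV from E. coli, ANS-based thermal shift: Kd_obs fitted from melting temperature versus ligand concentration, ΔGint from Kd_obs corrected for deprotonated sulfonamide and Zn-water fractions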
T10 construct: made in house; host or cells: E. coli
T10 sequence (Q9ULX7 16-337): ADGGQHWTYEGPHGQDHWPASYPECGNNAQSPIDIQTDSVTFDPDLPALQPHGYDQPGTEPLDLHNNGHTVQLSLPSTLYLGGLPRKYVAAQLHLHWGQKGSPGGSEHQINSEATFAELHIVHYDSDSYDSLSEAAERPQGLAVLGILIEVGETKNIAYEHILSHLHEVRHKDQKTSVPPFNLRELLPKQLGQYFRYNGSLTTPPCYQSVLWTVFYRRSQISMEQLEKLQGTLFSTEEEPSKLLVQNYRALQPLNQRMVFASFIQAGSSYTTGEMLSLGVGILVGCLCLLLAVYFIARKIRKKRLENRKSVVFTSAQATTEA
Procedure: as §1, §2, §3, §4, §5

CAXIII [7] = target: T8, CAXIII; assay: biochemical; conditions: Observed Dissociation Constant (Kd_obs), FTSA, pH 7.0, 37 °C
CAVB = target: T11, CAVB (Homo sapiens, UniProt Q9Y2D0); assay: Fluorescent thermal shift assay (FTSA), CAVB; assay type: binding; conditions: for Intrinsic Gibbs energy change (ΔGint), CAVB: 37 °C, calculated (Equation 5); for Kd: FTSA, pH 7.0, 37 °C, read-out: Observed Dissociation Constant (Kd_obs), CAVB
T11 construct: made in house; host or cells: E. coli
T11 sequence (Q9Y2D0 34-317): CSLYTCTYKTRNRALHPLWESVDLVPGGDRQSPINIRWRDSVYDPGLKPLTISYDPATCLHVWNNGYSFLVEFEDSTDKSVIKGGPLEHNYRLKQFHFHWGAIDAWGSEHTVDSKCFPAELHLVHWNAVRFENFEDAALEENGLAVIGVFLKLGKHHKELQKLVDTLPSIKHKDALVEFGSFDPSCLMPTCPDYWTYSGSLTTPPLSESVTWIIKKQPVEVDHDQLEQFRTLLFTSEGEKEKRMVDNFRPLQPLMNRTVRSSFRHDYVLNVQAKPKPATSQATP
Procedure: as §1, §2, §3, §4, §5

CAIV = target: T12, CAIV (Homo sapiens, UniProt P22748); assay: Fluorescent thermal shift assay (FTSA), CAIV; assay type: binding; conditions: for Intrinsic Gibbs energy change (ΔGint), CAIV: 37 °C, calculated (Equation 5); for Kd: FTSA, pH 7.0, 37 °C, read-out: Observed Dissociation Constant (Kd_obs), CAIV;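 on all read-outs here: recombinant human enzyme, thermal denaturation followed by ANS fluorescence, melting temperature versus ligand concentration fitted for Kd_obs, intrinsic value corrected for deprotonated sulfonamide and Zn-bound water fractions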
T12 construct: made in house; host or cells: E. coli
T12 sequence (P22748 19-312): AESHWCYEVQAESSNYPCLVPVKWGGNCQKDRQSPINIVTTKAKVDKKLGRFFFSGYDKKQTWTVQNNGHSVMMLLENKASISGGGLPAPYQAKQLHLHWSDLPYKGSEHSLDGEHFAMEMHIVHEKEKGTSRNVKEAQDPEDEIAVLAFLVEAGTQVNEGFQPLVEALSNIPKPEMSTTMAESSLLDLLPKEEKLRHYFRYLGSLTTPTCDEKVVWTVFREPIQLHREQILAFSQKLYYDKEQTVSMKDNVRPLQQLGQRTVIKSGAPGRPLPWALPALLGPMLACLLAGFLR
Procedure: as §1, §2, §3, §4, §5

CAII [8] = target: T2, CAII; assay: Isothermal titration calorimetry (ITC), CAII; assay type: binding; conditions: pH 7.0, 37 °C, read-out: Observed Dissociation Constant (Kd_obs), CAII, ITC data in brackets
CAI [9] = target: T7, CAI; conditions: FTSA, pH 7.0, 37 °C; taken from previous publication; read-out: Observed Dissociation Constant (Kd_obs), CAI; cited from earlier work
CAII [10] = target: T2, CAII; conditions: FTSA, pH 7.0, 37 °C; taken from previous publication; read-out: Observed Dissociation Constant (Kd_obs), CAII; cited from earlier work
CAXIII [11] = target: T8, CAXIII; conditions: read-out: Observed Dissociation Constant (Kd_obs), CAXIII; FTSA, pH 7.0, 37 °C; taken from previous publication; cited from earlier work
CAIX [12] = target: T9, CAIX; conditions: FTSA, pH 7.0, 37 °C; taken from previous publication; read-out: Observed Dissociation Constant (Kd_obs), CAIX; cited from earlier work
CAXII [13] = target: T3, CAXII; conditions: FTSA, pH 7.0, 37 °C; taken from previous publication; read-out: Observed Dissociation Constant (Kd_obs), CAXII; cited from earlier work
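Wherever Intrinsic Gibbs energy change (ΔGint), CAII is given: recombinant human CAII, thermal shift with ANS dye fluorescence, Kd_obs from fitting melting temperature versus ligand concentration, intrinsic values corrected for deprotonated sulfonamide and Zn-bound water fractions.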

T1 sequence (P35218 39-305): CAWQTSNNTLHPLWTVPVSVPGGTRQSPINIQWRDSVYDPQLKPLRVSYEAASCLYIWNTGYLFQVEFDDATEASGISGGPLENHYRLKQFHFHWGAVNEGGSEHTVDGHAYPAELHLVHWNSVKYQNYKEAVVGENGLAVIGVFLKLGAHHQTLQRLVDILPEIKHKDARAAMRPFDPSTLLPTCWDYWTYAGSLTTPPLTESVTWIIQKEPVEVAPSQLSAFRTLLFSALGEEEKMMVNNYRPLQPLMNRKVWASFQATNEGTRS

SMILES | melting point [°C] | Intrinsic Gibbs energy change (ΔGint), CAII (CAII [1]) [kJ/mol] | Kd (CAII [1]) [nM] | Intrinsic Gibbs energy change (ΔGint), CAXII (CAXII [2]) [kJ/mol] | Kd (CAXII [2]) [nM] | Intrinsic Gibbs energy change (ΔGint), CAVI (CAVI) [kJ/mol] | Kd (CAVI) [µM] | Intrinsic Gibbs energy change (ΔGint), CAVII (CAVII) [kJ/mol] | Kd (CAVII) [nM] | Kd (CAIII) [µM] | Intrinsic Gibbs energy change (ΔGint), CAI (CAI [3]) [kJ/mol] | Kd (CAI [3]) [nM] | Intrinsic Gibbs energy change (ΔGint), CAXIII (CAXIII [4]) [kJ/mol] | Intrinsic Gibbs energy change (ΔGint), CAIX (CAIX [5]) [kJ/mol] | Kd (CAIX [5]) [nM] | pKa [6] | Intrinsic Gibbs energy change (ΔGint), CAXIV (CAXIV) [kJ/mol] | Kd (CAXIV) [nM] | Kd (CAXIII [7]) [nM] | Intrinsic Gibbs energy change (ΔGint), CAVB (CAVB) [kJ/mol] | further results
COC(=O)CCN(c1ccc(S(N)(=O)=O)cc1)c1nc(C)cs1 [Compound 28, Methyl 3-((4-Methylthiazol-2-yl)(4-sulfamoylphenyl)amino)propanoate] | 72 to 73 | -64.0 | 45 | -60.0 | 250 | -55.1 | 7.1 | -63.0 | 77 | ≥ 200 | -62.6 | 37 | -57.8 | -66.0 | 33 | 10.1 | -68.7 | 29 | 250 | -63.6 | Intrinsic Gibbs energy change (ΔGint), CAVA (CAVA; 37 °C, calculated (Equation 5)): -46.7 kJ/mol; Kd (CAVA; 200 µM the weakest detectable Kd_obs, read-out: Kd_obs, CAVA): 50 µM; Kd (CAVB): 0.046 µM; Intrinsic Gibbs energy change (ΔGint), CAIV (CAIV): -56.9 kJ/mol; Kd (CAIV): 1.1 µM; Kd (CAII [8]): 59 nM
CCOC(=O)c1sc(N(CCC(=O)O)c2ccc(S(N)(=O)=O)cc2)nc1C [Compound 31, 3-((5-(Ethoxycarbonyl)-4-methylthiazol-2-yl)(4-sulfamoylphenyl)amino)propanoic acid] | 221 to 222 | -56.3 | 910 | -52.9 | 3800 | -51.9 | 24 | -55.0 | 1700 | ≥ 200 | -52.4 | 2000 | -56.2 | -59.8 | 360 | 10.1 | -57.8 | 2000 | 450 | -48.0 | Kd (CAVA; pH 7.0, 37 °C, read-out: Observed Dissociation Constant (Kd_obs), CAVA): ≥ 200 µM; Kd (CAVB): 20 µM; Intrinsic Gibbs energy change (ΔGint), CAIV (CAIV): -52.3 kJ/mol; Kd (CAIV): 6.7 µM; Kd (CAII [8]): 860 nM
NS(=O)(=O)c1ccc(N(CCC(=O)O)c2nc(-c3ccc(Cl)cc3)cs2)cc1 [Compound 35] |  |  |  |  |  |  |  |  |  |  |  |  |  |  |  |  |  |  |  |  | Kd (CAI [9]): 25 nM; Kd (CAII [10]): 100 nM; Kd (CAXIII [11]): 530 nM; Kd (CAIX [12]): 560 nM; Kd (CAXII [13]): 200 nM
